“Also recorded” adds a separate entry of the source.
Tested on: NCI-H716 cells
Assay: Calcium assay: activation of NCI-H716 cells by sialylated oligosaccharides (change in fluorescence ratio from intracellular calcium increase)
Type: cell-based, human
Settings: for significance of the increase in fluorescence ratio / concentration dependence of calcium response / activation of NCI-H716 cells / fluorescence ratio (intracellular calcium response): NCI-H716 cells; for significance of the increase in fluorescence ratio: 5 mg/mL, 10 mg/mL and 20 mg/mL, p<0.05 vs Negative control, two-sided t-test; for concentration dependence of calcium response / activation of NCI-H716 cells: 1-20 mg/mL, FIG. 1 / FIG. 3; for fluorescence ratio (intracellular calcium response): all the tested concentrations (1 mg/mL, 5 mg/mL, 10 mg/mL and 20 mg/mL), vs buffer negative control; for intracellular calcium release: in vitro system with endocrine intestinal cells, indicator of potential GLP-1 secretagogue capacity
Text: NCI-H716 is a cell line derived from human L-cells, the enteroendocrine cells that secrete GLP-1, and it is often used as a model of GLP-1 secretion. Unstimulated NCI-H716 cells secrete a basal level of GLP-1 and activation of the cells leads to dose-dependent increase in GLP-1 secretion. Activation of the NCI-H716 cells and subsequent release of GLP-1 can be triggered by nutrients such as palmitic acid, oleic acid, and meat hydrolysate, Gastrin Releasing Peptide (GRP), the cholinergic molecule Carbachol, bitter compounds such as denatonium, ginsenosides and other molecules.
Activation of NCI-H716 cells by ionomycin, GRP, denatonium, or ginsenosides leads to increased intracellular calcium. Elevation of intracellular calcium is therefore a marker of cell activation and in NCI-H716 cells it could be considered as an indicator of GLP-1 release.
A calcium assay was used to determine if NCI-H716 cells respond to human milk oligosaccharides (sialylated oligosaccharides) or components/precursors thereof (lactose and sialic acid). In this assay, cultured NCI-H716 cells were loaded with a fluorescent calcium sensitive dye then stimulated with the HMOs. The response to the stimulus was measured by change in fluorescence ratio in consequence of intracellular calcium increase. The tested HMOs were 3′-sialyllactose (3SL) and 6′-sialyllactose (6SL). They were tested individually.
GRP (Gastrin Releasing Peptide): positive control
Tested HMOs concentrations: 1 mg/mL, 5 mg/mL, 10 mg/mL and 20 mg/mL
Tested lactose and sialic acid concentrations: 5.5 mg/mL and 4.72 mg/mL respectively (correspond to the amounts contained in 10 mg/mL of 3SL, in order to make a suitable comparison with 10 mg/mL of 3SL)

| SMILES | specificity of the calcium response (3SL 10 mg/mL compared with its components lactose and sialic acid, FIG. 2) | significance of the increase in fluorescence ratio | concentration dependence of calcium response / activation of NCI-H716 cells | fluorescence ratio (intracellular calcium response) | intracellular calcium release | activation of NCI-H716 cells (calcium response) (lactose 5.5 mg/mL (amount contained in 10 mg/mL of 3SL), FIG. 2) | activation of NCI-H716 cells (calcium response) (sialic acid 4.72 mg/mL (amount contained in 10 mg/mL of 3SL), FIG. 2) |
| --- | --- | --- | --- | --- | --- | --- | --- |
| CC(=O)N[C@H]1[C@H]([C@H](O)[C@H](O)CO)O[C@@](O[C@H]2[C@@H](O)[C@@H](CO)O[C@@H](O[C@H]3[C@H](O)[C@@H](O)C(O)O[C@@H]3CO)[C@@H]2O)(C(=O)O)C[C@@H]1O (stereo partly drawn) [3SL, (6R)-5-Acetamido-3,5-dideoxy-6-[(1R,2R)-1,2,3-trihydroxypropyl]-β-L-threo-hex-2-ulopyranonosyl-(2->3)β-D-galactopyranosyl-(1->4)-D-glucopyranose] | specific | significant | clear concentration dependent calcium response; also recorded: dose dependent activation | enhanced | increased intracellular calcium release | – | – |
| CC(=O)N[C@H]1[C@H]([C@H](O)[C@H](O)CO)O[C@@](OC[C@H]2O[C@@H](O[C@H]3[C@H](O)[C@@H](O)C(O)O[C@@H]3CO)[C@H](O)[C@@H](O)[C@H]2O)(C(=O)O)C[C@@H]1O (stereo partly drawn) [6SL, (6R)-5-Acetamido-3,5-dideoxy-6-[(1R,2R)-1,2,3-trihydroxypropyl]-β-L-threo-hex-2-ulopyranonosyl-(2->6)β-D-galactopyranosyl-(1->4)-D-glucopyranose] | – | significant | clear concentration dependent calcium response; also recorded: dose dependent activation | enhanced | increased intracellular calcium release | – | – |
| OC[C@H]1O[C@@H](O[C@H]2[C@H](O)[C@@H](O)C(O)O[C@@H]2CO)[C@H](O)[C@@H](O)[C@H]1O (some centres unmarked) [Lactose, lactose, reference compound] | – | – | – | – | – | did not activate the cells | – |
| CC(=O)N[C@H]1[C@H]([C@H](O)[C@H](O)CO)OC(O)(C(=O)O)C[C@@H]1O (some centres unmarked) [sialic acid, N-acetylneuraminic acid, reference compound] | – | – | – | – | – | – | did not activate the cells |

Reference: patent US20210205340A1, “COMPOSITIONS COMPRISING SIALYLATED OLIGOSACCHARIDES FOR USE IN INFANTS OR YOUNG CHILDREN TO PREVENT LATER IN LIFE OBESITY OR RELATED COMORBIDITIES AND PROMOTE A HEALTHY GROWTH” (NESTEC S.A., priority 2016, published 2021)
